Measurements taken from publication PMC12538275, “Fat or flat? The impact of dipole moment vectors on non-covalent interactions between aromatic tags and macromolecules” (Inorganic Chemistry Frontiers, 2025).

What was measured:
SmCB1 [1] = target: SmCB1 (Schistosoma mansoni, UniProt Q8MNY2, T185A/T300A); experiment: biochemical; details: for Ki SmCB1: kinetic activity assay, triplicate, pH 5.5, 37 °C
Excerpt: (§1) Enzymatic activity was monitored either fluorometrically with peptide–AMC substrates, which release 7-amino-4-methylcoumarin (AMC) as a fluorescent product, or spectrophotometrically with peptide–pNA substrates, which liberate p-nitroaniline (pNA). Reaction rates were obtained from the slopes of the linear progress curves and expressed as relative fluorescence units per second (RFU s^−1) or as absorbance units per second (AU s^−1). […] The standard errors of measurements refer to the non-linear regression analysis.
(§2) A non-glycosylated mutant of the SmCB1 zymogen was expressed in the yeast Pichia pastoris, activated by S. mansoni legumain and purified as described previously.[25,43,58] Kinetic measurements were performed in triplicate in 96-well microplates (100 μL assay volume) at 37 °C. […] Substrate hydrolysis was measured fluorometrically in an Infinite M1000 microplate reader (Tecan) at excitation and emission wavelengths of 360 and 465 nm, respectively. Inhibition assays for human cathepsins and cruzain are described in Supplemental Experimental Procedures.

human cathepsin B = target: T1, human cathepsin B (Homo sapiens, UniProt P07858); experiment: Cathepsin B inhibition assay with chromogenic substrate Cbz-Arg-Arg-pNA; type: biochemical; details: kinetic activity assay; for Ki: read-out: Ki Cat B
T1 construct: purchased Calbiochem
Excerpt: as §1
(§3) Enzymatic Assay Materials
(§4) Human cathepsin B was purchased from Calbiochem, and human cathepsins K, L, and S from Enzo. […]
(§5) Stock solutions of the […]
inhibitors and substrates were prepared in DMSO.
Cathepsin B Inhibition Assay
Kinetic measurements were performed in duplicate in cuvettes (1 mL assay volume) at 37 °C, as described.18-20 Human cathepsin B was activated by a 1:500 dilution with assay buffer (100 mM sodium phosphate, pH 6.0, 100 mM NaCl, 5 mM EDTA, 0.01% Brij 35) containing 5 mM DTT and then incubated at 37 °C for 30 min.
Into a cuvette containing 960 µL assay buffer, 5 µL of the chromogenic substrate Cbz-Arg-Arg-pNA, DMSO and inhibitor solution (15 µL) were pipetted. After addition of cathepsin B (20 µL), substrate hydrolysis was measured spectrophotometrically in a VARIAN/Bio-50/100 photometer at 405 nm for 20 min. […]

cruzain = target: T2, cruzain (Trypanosoma cruzi, UniProt P25779); experiment: Cruzain inhibition assay; type: biochemical; details: duplicate measurements
T2 construct: Recombinant cruzain, consisting of the catalytic domain without the C-terminal extension; made in house
Excerpt: as §1
Enzymatic Assay Materials […]
Recombinant cruzain, consisting of the catalytic domain without the C-terminal extension, was expressed and purified as described previously.16,17 All substrates were purchased from Bachem. Stock solutions of the inhibitors and substrates were prepared in DMSO. […]
Kinetic measurements were performed in duplicate with a fluorometric assay (Biotek SynergyTM HT) using Corning 96-well black microplates (200 µL assay volume) at 25 °C. Recombinant cruzain was incubated in 100 mM sodium acetate, pH 5.5, 5 mM DTT, 0.01 % Triton X-100 for 20 min, followed by an additional 2 min incubation with inhibitors before the reaction was started by the addition of the fluorogenic substrate Cbz-Phe-Arg-AMC. Substrate hydrolysis was measured for 5 min fluorometrically at excitation and emission wavelengths of 360 and 460 nm, respectively. […]

human cathepsin K = target: T3, human cathepsin K (Homo sapiens, UniProt P43235); experiment: Cathepsin K inhibition assay; type: biochemical; details: duplicate measurements; read-out: Ki cat K
T3 construct: purchased Enzo
T3 sequence (P43235 115-329): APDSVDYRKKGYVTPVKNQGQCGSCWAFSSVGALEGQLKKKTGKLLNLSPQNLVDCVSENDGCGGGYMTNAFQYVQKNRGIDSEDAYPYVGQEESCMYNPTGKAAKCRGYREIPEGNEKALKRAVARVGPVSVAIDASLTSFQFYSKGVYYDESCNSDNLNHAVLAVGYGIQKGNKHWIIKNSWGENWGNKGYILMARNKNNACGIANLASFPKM
Excerpt: as §1, §3, §4, §5
inhibitors and substrates were prepared in DMSO. […]
Cathepsin K Inhibition Assay
Kinetic measurements were performed in duplicate in 96-well microplates (100 µL assay volume) at 25 °C, as described.18-20 Human recombinant cathepsin K was activated by a 1:100 dilution with assay buffer (100 mM sodium citrate, pH 5.0, 100 mM NaCl, 1 mM EDTA, 0.01% CHAPS) containing 5 mM DTT, and then incubated at 37 °C for 30 min. […] After addition of cathepsin K (2 µL), substrate hydrolysis was measured for 20 min fluorometrically in a FLUOSTAR Optima plate reader at excitation and emission wavelengths of 360 and 440 nm, respectively. […]

human cathepsin L = target: T4, human cathepsin L (Homo sapiens, UniProt P07711); experiment: Cathepsin L inhibition assay; type: biochemical; details: duplicate measurements; read-out: Ki cat L
T4 construct: Human isolated cathepsin L; purchased Enzo
Description: Cathepsin L Inhibition Assay
Kinetic measurements were performed in duplicate in cuvettes (1 mL assay volume) at 37 °C, as described.18-20 Human isolated cathepsin L was activated by a 1:100 dilution with assay buffer (100 mM sodium phosphate buffer, pH 6.0, 100 mM NaCl, 5 mM EDTA, 0.01% Brij 35) containing 5 mM DTT, and then incubated at 37 °C for 30 min. Into a cuvette containing 940 µL assay buffer, 10 µL of the chromogenic substrate Cbz-Phe-Arg-pNA, DMSO and inhibitor solution (10 µL) were pipetted. After the addition of cathepsin L (40 µL), substrate hydrolysis was measured for 20 min spectrophotometrically in a VARIAN/Bio-50/100 photometer at 405 nm. […]
Arg-AMC, cathepsin S and DMSO were 40 µM (= 0.74 × Km), 42 ng mL-1 and 2%, respectively. […]

human cathepsin S = target: T5, human cathepsin S (Homo sapiens, UniProt P25774); experiment: Cathepsin S inhibition assay; type: biochemical; details: duplicate measurements; read-out: Ki cat S
T5 construct: purchased Enzo
Description: Cathepsin S Inhibition Assay
Kinetic measurements were performed in duplicate in 96-well microplates (100 µL assay volume) at 25 °C, as described.18-20 Human recombinant cathepsin S was activated by 1:100 dilution with assay buffer (100 mM sodium citrate, pH 6.0 containing 50 mM NaCl, 2 mM EDTA, 0.01% Triton X-100) containing 5 mM DTT, and then incubated at 37 °C for 60 min. Into a well containing 184 µL assay buffer, 0.8 µL of the fluorogenic substrate Cbz-Phe-Arg-AMC, DMSO and inhibitor solution (3.2 µL) were pipetted. After addition of cathepsin S (12 µL), substrate hydrolysis was measured for 20 min fluorometrically on a FLUOSTAR Optima plate reader at excitation and emission wavelengths of 360 and 440 nm, respectively. The final concentrations of Cbz-Phe-Arg-AMC, cathepsin S and DMSO were 40 µM (= 0.74 × Km), 42 ng mL-1 and 2%, respectively. […]

[2] = system: newly transformed schistosomula (NTS) of S. mansoni; experiment: Phenotypic assay with newly transformed schistosomula (NTS); type: cell-based, Schistosoma mansoni; details: for Severity score: scale 0 (no effect) to 4 (most severe); for anti-schistosomal effect against NTS (in words): 1 and 10 μM, three days
Description: Newly transformed schistosomula (NTS) of S. mansoni were prepared by mechanically transforming infective larvae (cercariae) as described previously.[47,57] NTS (200–300 parasites) were incubated in flat-bottomed 96-well plates in 200 μL of Basch medium 169[60] containing 5% FBS (ThermoFisher Scientific), 100 U mL^−1 penicillin and 100 μg mL^−1 streptomycin (ThermoFisher Scientific), at 5% CO2 and 37 °C.[61,62] Inhibitors were added at final concentration of 1 or 10 μM,[43,47] and changes in phenotype were observed every 24 h for up to 72 h. A constrained nomenclature of ‘descriptors’[49,57] is used to record the multiple and dynamic changes in movement, shape and translucence that the schistosome parasite is capable of (Fig. S1). These descriptors are then converted into an ordinal ‘severity score’ system from 0 (no effect) to 4 (maximum effect), which allows for the relative comparison of compound effects, as described previously.[63]

[3] = set-up: method as in doi:10.1135/cccc20011375; details: cited from earlier work
SmCB1 [4] = experiment: biochemical; details: ratio of Ki values
Excerpt: as §1, §2

T2 sequence (P25779 123-337 limits assumed): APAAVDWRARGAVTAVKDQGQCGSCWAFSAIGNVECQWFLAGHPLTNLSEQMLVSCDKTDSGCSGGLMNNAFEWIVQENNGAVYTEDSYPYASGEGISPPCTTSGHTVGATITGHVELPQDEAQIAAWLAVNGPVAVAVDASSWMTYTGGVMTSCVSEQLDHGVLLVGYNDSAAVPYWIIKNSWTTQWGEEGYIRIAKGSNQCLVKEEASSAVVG
T5 sequence (P25774 115-331): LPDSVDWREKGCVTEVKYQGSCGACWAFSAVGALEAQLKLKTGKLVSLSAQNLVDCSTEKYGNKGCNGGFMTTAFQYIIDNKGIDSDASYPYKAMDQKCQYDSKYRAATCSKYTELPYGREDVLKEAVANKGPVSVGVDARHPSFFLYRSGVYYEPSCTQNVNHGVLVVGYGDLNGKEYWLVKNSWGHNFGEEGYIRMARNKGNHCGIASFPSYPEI
T4 sequence (P07711 114-333): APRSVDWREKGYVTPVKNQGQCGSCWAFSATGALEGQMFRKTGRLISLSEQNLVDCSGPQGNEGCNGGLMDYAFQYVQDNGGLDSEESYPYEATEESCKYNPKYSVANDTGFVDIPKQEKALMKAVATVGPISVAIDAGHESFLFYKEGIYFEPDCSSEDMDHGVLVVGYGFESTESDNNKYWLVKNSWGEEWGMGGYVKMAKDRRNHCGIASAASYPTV

Molecule | Ki (SmCB1 [1]) [nM] | Ki (human cathepsin B) [nM] | Ki (cruzain) [nM] | Ki (human cathepsin K) [nM] | Ki (human cathepsin L) [nM] | Ki (human cathepsin S) [nM] | Severity score ([2]; 1 μM, 24 h) | Severity score ([2]; 1 μM, 48 h) | Severity score ([2]; 1 μM, 72 h) | Severity score ([2]; 10 μM, 24 h) | Severity score ([2]; 10 μM, 48 h) | Severity score ([2]; 10 μM, 72 h) | anti-schistosomal effect against NTS (in words) [2] | dipole moment [3] [D] | Ki SmCB1 (SmCB1 [1]) | Ki Cat B (human cathepsin B) | Selectivity Ki (cat B)/Ki (SmCB1) (SmCB1 [4])
CC(C)(C)OC(=O)N[C@@H](Cc1cccc(Cl)c1)C(=O)NC1(C#N)CC1 [compound 4] | 27100 ± 3200 | 15500 ± 1700 | 750 ± 20 | 1850 ± 230 | 250 ± 20 | 96 ± 9 | 0 | 0 | 0 | 0 | 0 | 0 | ineffective | – | – | – | –
9-phenyl ortho-carborane | – | – | – | – | – | – | – | – | – | – | – | – | – | 5.0 | – | – | –
9-SH-closo-1,2-C2B10H11 [compound 2] | – | 43800 ± 5600 | – | – | – | – | 0 | 0 | 0 | 0 | 0 | 0 | ineffective | – | inactive | weak inhibition | –
N#CC1(NC(=O)[C@H](Cc2cccc(Cl)c2)NC(=O)CSc2ccccc2)CC1 [5a] | 14300 ± 2400 | 6800 ± 500 | 460 ± 10 | 1410 ± 260 | 370 ± 20 | 210 ± 30 | 0 | 0 | 0 | 0 | 0 | 0 | ineffective | – | – | – | 0.5
closo-1,2-C2B10H12 [compound 1, reference compound] | – | > 100000 | – | – | – | – | 0 | 0 | 0 | 0 | 0 | 0 | ineffective | 4.5 | inactive | inactive | –
